The source of these data is patent US20050215635A1, “Diarylheptanoid compounds and uses thereof” (priority 2004, published 2005).

The nature of assay [1]: Radical-scavenging activity by DPPH. An excerpt:
In this example, the 2,2-diphenyl-1-picrylhydrazyl (DPPH) method was used to explore the capacity of five isolated compounds of the invention to act as free radical scavengers. The DPPH assay has been extensively used to test the free radical scavenging ability of various chemicals (Brand-williams, W. et al., Wiss. Technol. 1995, 28, 25-30; Dinis, T. C. et al., Arch. Biochem. Biophys. 1994, 315, 161-169.)
This method was adapted from that of Brand-Williams, et al. (Brand-williams, W.; Cuvelier, M. E.; Berset, C. Lebensm. Wiss. Technol. 1995, 28, 25-30.). At least seven different concentrations were prepared for each purified compound. 25 μl pure compound solution and 975 μL DPPH solution (63.4 μM) were mixed together and left in the dark for 30 min. Each sample was triplicated and the values were averaged. The absorbance of the samples was measured at 515 nm against methanol solution without DPPH as the blank reference. The absorbance was measured every 30 min until the reaction reached a plateau. The reaction kinetics were then plotted using the above data and the percentage of DPPH remaining at the steady state was obtained. IC50 values were determined by extrapolation from linear regression analysis.
DPPH, 2,2-Diphenyl-1-picrylhydrazyl (DPPH.), is a stable radical in methanol solution. In its radical form, DPPH. absorbs at 515 nm, but the absorption ceases upon reduction by an antioxidant (AH) or a radical species (R.) (Brand-williams, W.; Cuvelier, M. E.; Berset, C. Lebensm. Wiss. Technol. 1995, 28, 25-30.). The concentration of tested chemicals needed to decrease the initial DPPH. concentration by 50% (IC50) is a parameter widely used to measure the antioxidant potential (Kanner, J.; Frankel, E.; German, B.; Kinsella, J. e. J. Agric. Food Chem. 1994, 42, 64-69, Vinson, J. A.; Dabbagh, Y. A.; Serry, M. M. J. Agric. Food Chem. 1995a, 43,2800-2802.). The lower the IC50, the higher the free radical scavenging power.
(DPPH is a stable violet radical that fades when it is reduced.)

Assay [2] deals with IL-1β production from human PBMCs. Briefly: IL-1β ELISA in supernatants of LPS-treated human PBMCs. The class given is cell-based. To be noted: 18 hrs. The protocol:
(§1) The PBMCs were separated from peripheral blood of normal healthy human volunteers. […] Supernatant was harvested after 18 hrs and stored at −70° C. until tested. The quantity of IL-1β and TNF-α present in supernatants was estimated by ELISA (R&D systems, MN, USA) following manufacturer's instruction. A standard curve was obtained by plotting known concentrations of recombinant human IL-1β and TNF-α vs absorbance at 450 nm.
(§2) Each data point represents mean+standard deviation (SD) of 3 replicates.

The subject of assay [3] is TNF-α production from human PBMCs. Briefly: TNF-α ELISA in supernatants of LPS-treated human PBMCs. The class given is cell-based. Conditions: 18 hrs. The protocol: as §1, §2
Background: In an ELISA, binding on a coated surface is turned into a signal by an enzyme label.

Assay [4] has as its system iNOS mRNA expression. Briefly: Relative RT-PCR of iNOS mRNA expression in RAW 264.7 cells. It counts as cell-based, mouse. Conditions: RAW 264.7, 12 hrs. The protocol: FIG. 4A and B: Effect of HMP on mRNA expression of iNOS and COX-2. Fig. A, RAW 264.7 cells were incubated in the presence of LPS (0.5 μg/ml) with or without HMP (12.5, 25 μM) for 12 hrs. Total RNA isolated from RAW 264.7 cells after 12 hrs of treatments with LPS alone or with various concentration of HMP was reverse transcribed to make cDNA and 2 μl (for iNOS) or 1 μl (for COX-2) of cDNA was amplified using gene specific primer (Ambion Inc). Ten μl of each PCR reaction was resolved in 2% agarose gel. Lane 1, control; 2. LPS (0.5 μg/ml); 3, LPS+HMP (12.5 μM) and Lane, 4 LPS+HMP (25 μM). Fig. B, Histogram showing densitometric analysis of iNOS and COX-2 mRNA expression. […] This experiment was repeated 3 times separately with similar observation.
The RAW 264.7 cells were cultured (10^6/well) in 6 well plate for 24 hrs and then medium was replaced by fresh medium and different concentrations of HMP either alone or in combination of LPS was added and further cultured for 12 hrs. […] Linear range of amplification of iNOS and COX-2 cDNA (2 μl for COX-2 and 1μl for iNOS of RT reaction mixture) was determined using gene specific primers from Ambion Inc (TX, USA), following manufacturer's instruction. The optimum amount of 18S primer and competitor for iNOS and COX-2 gene were also determined as per manufacturer's instruction. […]

`COc1cc(CC/C=C/C(=O)CCc2ccccc2)ccc1O` [AO-4, 7-(4″-hydroxy-3″-methoxyphenyl)-1-phenyl-hept-4-en-3-one]: the IC50 (commonly the midpoint of a concentration-inhibition curve) in assay [1] (DPPH 63.4 μM in methanol, absorbance at 515 nm, steady state, read-out: IC50 (μM) of Diarylheptanoids in Scavenging DPPH Free Radicals) came to 13.7 µM. Besides, the “free radical scavenging, DPPH data (in words)” value in assay [1] (DPPH assay) is given as “very good free radical scavengers”. Also, the “IL-1β” value in assay [2] (HMP 6.25 μM + LPS (10 ng/ml)) was found to be 339.21 ± 10.53 pg/mL; in assay [2] (HMP 6.25 μM alone) it was 22.12 ± 3.33 pg/mL; in assay [2] (HMP 12.5 μM + LPS (10 ng/ml)), 113.43 ± 3.81 pg/mL; in assay [2] (HMP 12.5 μM alone), 24.45 ± 1.03 pg/mL; in assay [2] (HMP 25 μM + LPS (10 ng/ml)), 77.27 ± 4.6 pg/mL; in assay [2] (HMP 25 μM alone), 23.28 ± 1.41 pg/mL. Further, the “LPS induced secretion of IL-1β (in words)” value in assay [2] (HMP 6.25-25 μM + LPS) is reported as “significantly in dose dependent fashion”. The “TNF-α” value was 342.24 ± 11.50 pg/mL in assay [3] (HMP 6.25 μM + LPS (10 ng/ml)); less than 15.62 pg/mL in assay [3] (HMP 6.25 μM alone, detection limit 15.62 pg/ml); 298.49 ± 5.47 pg/mL in assay [3] (HMP 12.5 μM + LPS (10 ng/ml)); less than 15.62 pg/mL in assay [3] (HMP 12.5 μM alone, detection limit 15.62 pg/ml); 165.38 ± 8.48 pg/mL in assay [3] (HMP 25 μM + LPS (10 ng/ml)); less than 15.62 pg/mL in assay [3] (HMP 25 μM alone, detection limit 15.62 pg/ml). The “inhibition of LPS induced TNF-α (in words)” value in assay [3] (HMP 6.25-25 μM + LPS) is on record as “only at 25 μM concentration”. The “inhibition of LPS induced iNOS mRNA expression (densitometry, ratio to 18 S RNA)” value stood at 47.8% in assay [4] (HMP 12.5 μM + LPS (0.5 μg/ml)) and 75.5% in assay [4] (HMP 25 μM + LPS (0.5 μg/ml)).
